Data from US20250066389A1, “HETEROCYCLIC AMIDES AND METHODS OF USING THE SAME” (Rgenta Therapeutics, Inc., priority 2021, published 2025).
Where a name gives a salt, the structure may show the parent alone.

What follows are compounds tested on PMS1 (assay: Mini-Gene Reporter Assay—PMS1 (firefly luciferase mini-gene reporter transiently transfected into HEK293 cells)). Conditions: Homo sapiens; mini-gene firefly luciferase reporter in HEK293 cells.
Type: cell-based
Method in brief: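 Luminescence (RLU) read-out of exon inclusion: compound dilutions, tested in duplicate, act on transiently transfected HEK293 cells carrying a firefly luciferase reporter fused downstream of the PMS1 skipped-exon region. Potency derived by Levenberg-Marquardt curve fitting, with percent effect at 5 μM.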

| SMILES | IC50 [nM] |
| --- | --- |
| Cc1cn2cc(C(=O)Nc3ccc(N4CCN[C@@H](C)C4)nn3)c(OC3CCCOC3)cc2n1 (stereo partly drawn) [Compound 218, 2-methyl-N-(6-((S)-3-methylpiperazin-1-yl)pyridazin-3-yl)-7-((tetrahydro-2H-pyran-3-yl)oxy)imidazo[1,2-a]pyridine-6-carboxamide] | 1000 to 10000 |
| Cc1cn2cc(C(=O)Nc3ccc(N4CCNC(C)(C)C4)nn3)c(OC3CCC3)cc2n1 [Compound 219, 7-cyclobutoxy-N-(6-(3,3-dimethylpiperazin-1-yl)pyridazin-3-yl)-2-methylimidazo[1,2-a]pyridine-6-carboxamide] | < 1000 |
| CCOc1cc2nn(C)cc2cc1C(=O)Nc1cc(C)c(N2CCN[C@@H](C)C2)nn1 [Compound 222, (S)-6-ethoxy-2-methyl-N-(5-methyl-6-(3-methylpiperazin-1-yl)pyridazin-3-yl)-2H-indazole-5-carboxamide hydrochloride] | 1000 to 10000 |
| CCOc1cc2nc(C)cn2cc1C(=O)Nc1ccc(N2CCC(NC)CC2)nn1 [Compound 226] | 1000 to 10000 |
| CCOc1cc2nc(C)cn2cc1C(=O)Nc1ccc(N2CC(C3CCNC3)C2)nn1 (centres unmarked) [Compound 227] | 1000 to 10000 |
| CCOc1cc2nc(C)cn2cc1C(=O)Nc1ccc(N2CCNCC3(CC3)C2)nn1 [Compound 230] | 1000 to 10000 |
| CCOc1cc2nc(C)cn2cc1C(=O)Nc1ccc(N2CCNC(CC(F)(F)F)C2)nn1 (centres unmarked) [Compound 231] | 1000 to 10000 |
| CCOc1cc2nc(C)cn2cc1C(=O)Nc1ccc(N2CCC(CNC(C)C)CC2)nn1 [Compound 232] | 1000 to 10000 |
| CCOc1cc2nc(C)cn2cc1C(=O)Nc1ccc(N2CCC(C3CCCN3)C2)nn1 (centres unmarked) [Compound 233] | 1000 to 10000 |
| CCOc1cc2nc(C)cn2cc1C(=O)Nc1ccc(N2CC3C4CCC(NC4)C3C2)nn1 (centres unmarked) [Compound 235] | 1000 to 10000 |
| CCOc1cc2nc(C)cn2cc1C(=O)Nc1ccc(N2CCC3CCCC(C2)N3)nn1 (centres unmarked) [Compound 236] | 1000 to 10000 |
| CCOc1cc2nc(C)cn2cc1C(=O)Nc1ccc(N2CC3CCC2C2CNCC32)nn1 (centres unmarked) [Compound 237] | 1000 to 10000 |

The next lines start with the values.

| IC50 [nM] | SMILES |
| --- | --- |
| < 1000 | Cc1cn2cc(C(=O)Nc3ccc(N4CCN[C@@H](C)C4)nn3)c(OCC(F)(F)F)cc2n1 [Compound 216, (S)-2-methyl-N-(6-(3-methylpiperazin-1-yl)pyridazin-3-yl)-7-(2,2,2-trifluoroethoxy)imidazo[1,2-a]pyridine-6-carboxamide] |
| < 1000 | CCOc1cc2nc(C)cn2cc1C(=O)Nc1ccc(N2CCN[C@@H](C)C2)nn1 [Compound 217, (S)-7-ethoxy-2-methyl-N-(6-(3-methylpiperazin-1-yl)pyridazin-3-yl)imidazo[1,2-a]pyridine-6-carboxamide HCl Salt] |
| < 1000 | CCOc1cc2nn(C)cc2cc1C(=O)Nc1ccc(N2CCNC(C)(C)C2)nn1 [Compound 220, N-(6-(3,3-dimethylpiperazin-1-yl)pyridazin-3-yl)-6-ethoxy-2-methyl-2H-indazole-5-carboxamide hydrochloride] |
| < 1000 | CCOc1cc2nc(C)cn2cc1C(=O)Nc1ccc(N2CCNC(C)(C)C2)nn1 [Compound 221, N-(6-(3,3-dimethylpiperazin-1-yl)pyridazin-3-yl)-7-ethoxy-2-methylimidazo[1,2-a]pyridine-6-carboxamide hydrochloride] |
| < 1000 | CCOc1nc2nc(C)cn2cc1C(=O)Nc1ccc(N2CCN[C@@H](C)C2)nn1 [Compound 224, (S)-7-ethoxy-2-methyl-N-(6-(3-methylpiperazin-1-yl)pyridazin-3-yl)imidazo[1,2-a]pyrimidine-6-carboxamide hydrochloride] |
| < 1000 | CCOc1nc2nn(C)cc2cc1C(=O)Nc1ccc(N2CCN[C@@H](C)C2)nn1 [Compound 225, (S)-6-ethoxy-2-methyl-N-(6-(3-methylpiperazin-1-yl)pyridazin-3-yl)-2H-pyrazolo[3,4-b]pyridine-5-carboxamide hydrochloride] |
| < 1000 | CCOc1cc2nc(C)cn2cc1C(=O)Nc1ccc(N2CCNC(CC(F)F)C2)nn1 (centres unmarked) [Compound 228] |
| < 1000 | CCOc1cc2nc(C)cn2cc1C(=O)Nc1ccc(N2CC3=C(CNC3)C2)nn1 [Compound 229] |
